# Data as given in patent publication US20230257468A1, “CIS-Binding Siglec Agonists and Related Compositions And Methods” (The Board of Trustees of the Leland Stanford Junior …, priority 2020, published 2023).
# What was measured:
# Assay type in all cases: cell-based, human
# dHL-60 cells = test: NETosis in neutrophil-like dHL-60 cells
# Method: (a-c) Primary neutrophils were cotreated with R848 (10 μM) and glycopolypeptide (500 nM) in IMDM supplemented 0.5% hiFBS containing the membrane impermeable DNA intercalators Cytotox Green or Red (250 nM). Images were acquired by fluorescence microscopy every 15 min for 12 h. The area of all green fluorescent objects >300 μm^2 was quantified and the total area was averaged across three images per well. Relative NETosis was determined by normalizing to the maximal NET area from R848 treatment alone (t=8 h). (a) Representative phase contrast and fluorescence images from t=8 h. Scale bars indicate 40 μm. (b) Quantitation of NETosis over time as area under the curve in (c). Error bars represent SD. (c) NET formation and degradation as a function of time. Error bands represent SEM. (d) Treatment of R848-stimulated neutrophils with various glycopolypeptides. Error bars represent SD. (e) pS9L is a mucin-like glycopolypeptide that bears high affinity and specific ligands for Siglec-9 and is functionalized with a membrane-tethering lipid tail. (f) HL-60 cells were transfected with siRNAs against SIGLEC9 (encoding Siglec-9), PTPN6 (encoding SHP-1), or a scrambled control and then grown for two days. Cells were then cotreated with R848 (10 μM) and vehicle or pS9L (500 nM). […] Statistics were determined by two-way ANOVA (b) or one-way ANOVA (c,d,f). * p<0.05; ** p<0.01; *** p<0.001; **** p<0.0001. […]
# PADI4 substrate H3 = test: Western blot of H3 citrullination in neutrophils
# primary neutrophils = test: Live-cell imaging NETosis assay, primary neutrophils; conditions: healthy neutrophils in vitro
# Method: (a-c) Primary neutrophils were cotreated with R848 (10 μM) and glycopolypeptide (500 nM) in IMDM supplemented 0.5% hiFBS containing the membrane impermeable DNA intercalators Cytotox Green or Red (250 nM). Images were acquired by fluorescence microscopy every 15 min for 12 h. The area of all green fluorescent objects >300 μm^2 was quantified and the total area was averaged across three images per well. Relative NETosis was determined by normalizing to the maximal NET area from R848 treatment alone (t=8 h). (a) Representative phase contrast and fluorescence images from t=8 h. Scale bars indicate 40 μm. (b) Quantitation of NETosis over time as area under the curve in (c). Error bars represent SD. (c) NET formation and degradation as a function of time. Error bands represent SEM. (d) Treatment of R848-stimulated neutrophils with various glycopolypeptides. Error bars represent SD. […] Statistics were determined by two-way ANOVA (b) or one-way ANOVA (c,d,f). * p<0.05; ** p<0.01; *** p<0.001; **** p<0.0001.
# TLR agonists were assayed using the live-cell imaging techniques in which freshly isolated neutrophils are cultured in low-serum media in the presence of a fluorogenic and membrane impermeable DNA-intercalating dye (Cytotox Green). Upon genomic DNA-externalization by NETosis, dye intercalates and fluorescence increases. […]
# neutrophils = test: Oxidative burst (ROS) in neutrophils
structure (smiles),measurement,setting,value
CCOCc1nc2c(N)nc3ccccc3c2n1CC(C)(C)O [R848],induction of NETosis,dHL-60 cells,induced NETosis
same,citrullination of H3,PADI4 substrate H3,"rapidly induced citrullination at R2, R8, and R17"
same,induction of NETosis,primary neutrophils,sufficient to induce NETosis
"CCCCCCCCCCCCCC(=O)O[C@@H]1[C@@H](C)[C@@]2(O)[C@@H](C=C(CO)C[C@]3(O)C(=O)C(C)=C[C@@H]23)[C@@H]2C(C)(C)[C@]12OC(C)=O [PMA, phorbol-12-myristate-13-acetate]",citrullination of H3,PADI4 substrate H3,only yields moderate citrullination
O=S(=O)(O)c1ccc2cc(N=Nc3cc(S(=O)(=O)O)c4cccnc4c3O)ccc2c1 [NSC-87877],inhibition of pS9L-induced oxidative burst,neutrophils,the oxidative burst was inhibited
